Patent US20060111288A1, “Peripheral benzodiazepine receptor independent superoxide generation” (priority 2004, published 2006)

Assays:
[1] = system: HL60 leukaemia cells; experiment: Mitochondrial membrane potential depolarisation (DiOC6(3) fluorescence, flow cytometry); type: cell-based, human
Procedure: (§1) HL60 promyelocytic leukaemia, Jurkat T cell leukaemia cells lacking the PBR,(18) (19) (kindly provided by Dr D. E. Banker and Dr F. Applebaum, The Fred Hutchinson Cancer Research Center, USA), and BV173 leukaemia cells were maintained in exponential suspension cultures in PPMI 1640 medium supplemented with 10% fetal calf serum, 5 mM glutamine, 100 μg/ml streptomycin and 100 U/ml penicillin. Cells were grown in a humidified atmosphere of 5% CO2/95% air at 37° C. PK11195 was dissolved in ethanol at a stock concentration of 8.7 mg/ml, and added to cells at a 75 μM final concentration for 4 hours; vehicle alone was also used in medium.
(§2) A Becton Dickinson FACScan (Oxford) was used to acquire 10,000 events using forward and scatter detectors with logarithmic amplification. Lymphoid enriched gates were defined. Corresponding DiOC6(3) or CMH2DCFDA fluorescence was analysed using the FL1 (530 nm) band pass filter. Propidium iodide or ethidium fluorescence were analysed using the FL3 (620 nm) band pass filter. List mode Data was analysed using WINMDI 2.8. Fluorescence microscopy was performed using a Zeiss Axioskop four colour florescence microscope with digital capture via a computer running IPLab Spectrum software.
(§3) Cells were incubated for 20 minutes at 37° C. in the dark with the cationic lipophillic (amphipathic) probe DiOC6(3) (80 nM), then counter stained for 10 minutes with propidium iodide (20 μg/ml). DiOC6(3) is sequestered within the mitochondrial matrix due to the inner membrane potential (ΔΨm), according to the Nernst equation, dissipation leading to a reduction in mitochondrial retention and decreased cellular DiOC6(3) fluorescence. Collapse of ΔΨm was prevented by incubating cells for 30 minutes with 50 μM bongkrekic acid. Events with increased propidium iodide fluorescence were subtracted, by gating, from the DiOC6(3) histograms to eliminate dead cells, with loss of plasma membrane integrity. Dose-response curves used the calculating the proportion of DiOC6(3) low cells as the dependent variable on the ordinate. To measure MPT directly, cells were incubated with 1 μM calcein AM for 30 minutes, followed by 1 mM […]. Cobalt quenches calcein fluorescence, but cannot traverse an intact inner mitochondrial membrane to enter the mitochondrial matrix, to which calcein equilibrates. Opening of the PTPC allows cobalt to enter, reducing calcein fluorescence.

[2] = system: DoHH2 cells; experiment: Apoptosis induction in the presence and absence of the ROS scavenger MnTBAP; type: cell-based; details: 24, 48, 72 hr, 1000 micromolar MPTP, 100 micromolar PK11195, 50 micromolar HA14-1, FIG. 5
Procedure: DoHH2 cells, a lymphoma cell line, were treated with MPTP, PK11195 and HA14-1 in the presence and absence of MnTBAP, a scavenger of ROS. […] MnTBAP inhibited MPTP-induced and PK11195-induced apoptosis, but not apoptosis induced by HA14-1. The three columns in each lane represent three time courses (L to R: 24 hr, 48 hr and 72 hr). […] The induction of apoptosis at the same time points as a result of treatment with 1000 micromolar MPTP is shown in lane “1000”.
The blockade of MPTP induction of apoptosis by MnTBAP parallels that of PK11195.
DoHH2 cells, a lymphoma cell line with high levels of the […] protein Bcl-2 due to a translocation between chromosome 14 and 18 (where the Bcl-2 gene is located), were exposed to MPTP, PK11195 and HA 14-1 in the presence and absence of the mitochondrial ROS scavenger, MnTBAP.

[3] = system: Jurkat T cell leukaemia cells; experiment: Hydrogen peroxide generation (CMH2DCF fluorescence) in PBR-negative cells; type: cell-based; details: PBR not expressed, FIG. 3
Procedure: as §1, with “medium. O2^−· was detected by incubating cells for 15 minutes in 5 μM dihydroethidium, which is oxidized to ethidium. […] Hydrogen peroxide was detected by loading cells for 30 minutes with 5 μM CM-H2DCFDA, and its formation inhibited by preincubation with 500 U/ml catalase for 30 minutes (21). Dose-response curves for CM-H2DCFDA used the calculated proportion of CM-H2DCFDA high cells as the dependent variable.” for “medium.”

[4] = system: normal, non-malignant lymphocytes; experiment: Apoptosis induction in normal lymphocytes; type: cell-based
[5] = system: primary chronic lymphatic leukaemia cells; experiment: Apoptosis induction in primary leukaemia cells; type: cell-based; details: primary chronic lymphatic leukaemia cells (higher NADPH oxidase than normal cells)
[6] = system: BV173 leukaemia cells; experiment: Hydrogen peroxide generation (CMH2DCF fluorescence) in PBR-positive cells; type: cell-based; details: PBR expressed, FIG. 3
Procedure: as §1, with “medium. O2^−· was detected by incubating cells for 15 minutes in 5 μM dihydroethidium, which is oxidized to ethidium. […] Hydrogen peroxide was detected by loading cells for 30 minutes with 5 μM CM-H2DCFDA, and its formation inhibited by preincubation with 500 U/ml catalase for 30 minutes (21). Dose-response curves for CM-H2DCFDA used the calculated proportion of CM-H2DCFDA high cells as the dependent variable.” for “medium.”

[7] = system: leukaemia cells; experiment: Superoxide generation (dihydroethidium to ethidium fluorescence); type: cell-based
Procedure: as §2
(§4) O2^−· was detected by incubating cells for 15 minutes in 5 μM dihydroethidium, which is oxidized to ethidium. To test the effect of O2^−· […] on O2^−· generation, cells were treated with 100 μM MnTBAP for 45 minutes. Hydrogen peroxide was detected by loading cells for 30 minutes with 5 μM CM-H2DCFDA, and its formation inhibited by preincubation with 500 U/ml catalase for 30 minutes (21). Dose-response curves for CM-H2DCFDA used the calculated proportion of CM-H2DCFDA high cells as the dependent variable.

[8] = system: HL60 cells; experiment: Hydrogen peroxide generation (CMH2DCF fluorescence); type: cell-based, human
Procedure: as §2, §4

[9] = system: peripheral benzodiazepine receptor (PBR); details: references 1, 2; cited from earlier work
[10] = system: HL60 leukaemia cells; experiment: Direct measurement of MPT by calcein/cobalt quenching; type: cell-based, human; details: calcein AM plus cobalt, FIG. 1D/1E
Procedure: as §3

For `CCC(C)N(C)C(=O)c1cc2ccccc2c(-c2ccccc2Cl)n1` (centres unmarked) [PK11195, 1-(2-chlorophenyl)-N-methyl-N-methyl-N-(1-methylpropyl)-isoquinoline carboxamide], the “time until reduction in DiOC6(3) fluorescence is detectable” value ([1]; PK11195 treated) was at most 3 h, the “DiOC6(3) fluorescence (collapse of mitochondrial ΔΨm)” value ([1]; PK11195 treated vs control, FIG. 1A/1B) was “reduction in DiOC6(3) fluorescence” and the “effect of MnTBAP on apoptosis induced by the compound” value (“effect of MnTBAP on apoptosis induced” for short) [2] was “inhibited”. For the same compound, the “CMH2DCF fluorescence (generation of H202)” value [3] was “increase in CMH2DCF fluorescence”, the induction of apoptosis [4] was “does not do so” and the induction of apoptosis [5] was “induces apoptosis”. The “CMH2DCF fluorescence (generation of H202)” value [6] was “increase in CMH2DCF fluorescence”, the “ethidium fluorescence (O2−· generation)” value ([7]; following PK11195 treatment vs control, FIG. 4A) was “early increase in ethidium fluorescence” and the “concentration range in which CMH2DCF fluorescence increased” value ([8]; HL60 cells, concentration dependent, FIG. 2A) was 50 to 100 µM. The “binding affinity to the PBR” value [9] was “nanomolar” and the “mitochondrial calcein fluorescence (MPT, open PTPCs)” value [10] was “quenched”.
In the case of catalase, the “effect on PK11195 induced increase in CMH2DCF fluorescence” value ([8]; HL60 cells preincubated with catalase 500 U/ml, FIG. 2B) is reported as “inhibited”.
In the case of `CN1CC=C(c2ccccc2)CC1` [MPTP, 1-methyl-4-phenyl-1,2,3,6-tefrahydropyridine], the “effect of MnTBAP on apoptosis induced” value [2] is reported as “inhibited”.
In the case of `CO[C@H](C/C=C\C=C\CC/C=C/C[C@H](C)/C=C/C(=C\C(=O)O)CC(=O)O)/C(C)=C\C=C(/C)C(=O)O` [BA, Bongkrekic acid], the “effect of inhibitor on PK11195 mediated mitochondrial depolarisation” value ([1]; pre-treatment with 50 μM bongkrekic acid for 30 minutes, FIG. 1C) is reported as “prevented”.
In the case of `CCOC(=O)C1=C(N)Oc2ccc(Br)cc2C1C(C#N)C(=O)OCC` (centres unmarked) [HA14-1], the “effect of MnTBAP on apoptosis induced” value [2] is reported as “not blocked”.
With `O=C(O)c1ccc(C2=C3C=CC(=N3)C(c3ccc(C(=O)O)cc3)=c3ccc([nH]3)=C(c3ccc(C(=O)O)cc3)c3ccc([n-]3)C(c3ccc(C(=O)O)cc3)c3ccc2[n-]3)cc1.[Cl-].[Mn+3]` (centres unmarked) [MnTBAP, Manganese (III) tetrakis (4-benzoic acid) porphyrin chloride] the “effect on rate of PK11195 induced mitochondrial depolarisation (rate of reduction of DiOC6(3) fluorescence)” value ([1]; presence vs absence of MnTBAP, FIG. 4C) was “Reduction in the rate of inner mitochondrial membrane depolarisation” and the “effect on PK11195 induced increase in ethidium fluorescence” value ([7]; 100 μM MnTBAP, FIG. 4B) was “inhibited”.
